Laboratory results reported in patent US10792282B2, “Protein kinase C inhibitors and uses thereof” (Rigel Pharmaceuticals, Inc., priority 2013, dated 2020).
Where two headings read alike, the source gives them in different places.

System: PKC mediated IL-2 production
Assay: IL-2 ELISA, human primary T cell, anti CD3+CD28+ (whole cell functional assay)
Format: cell-based
Description: Human primary T cells were prepared as follows. Fresh PBMC's from All Cells (Cat # PB002) were re-suspended in RPMI (RPMI-1640 with L-Glutamine; Mediatech, Inc., Herndon Va., cat. #10-040-CM) with 10% FBS and seeded into flasks and incubated at 37° C. for 2 hours to allow the monocytes to adhere. The non-adherent cells were then centrifuged and re-suspended in RPMI medium containing 40 U/ml IL2 and seeded into a flask pre-coated with 1 μg/ml aCD3 and 5 ug/ml aCD28 (Anti-Human CD3, BD Pharmingen Catalog #555336, Anti-Human CD28, Beckman Coulter Catalog # IM1376). The cells were stimulated for 3-4 days, then transferred to a fresh flask and maintained in RPMI (RPMI-1640 with L-Glutamine; Mediatech, Inc., Herndon Va., cat. #10-040-CM) with 10% FBS and 40 U/ml IL-2.
(§1) Human primary T cells (100,000 cells per well) were pre-incubated with or without test compound in RPMI-1640 with L-Glutamine and 10% FBS for 1 hour at 37° C. Cells were then stimulated by transferring them to round-bottom 96-well plates pre-coated with 1 μg/ml αCD3 and 5 μg/ml αCD28. For counter assay, cells were instead stimulated by adding 8× stock solutions of PMA and ionomycin in RPMI-1640 with L-Glutamine and 10% FBS (for final concentrations of 0.5 ng/ml PMA and 0.1 μM ionomycin, both from Calbiochem). Cells were incubated at 37° C. for 24 hours before 100 μL supernatants were harvested for quantification of IL-2 by ELISA using Human IL-2 Duoset ELISA Kit from R and D Systems, Cat. # DY202E.
Compounds 1-90 were tested in a whole cell functional assay for PKC mediated IL-2 production as follows. Human primary T cell isolation and culture: Human primary T cells were prepared as follows. Whole blood was obtained from a healthy volunteer, mixed 1:1 with PBS, layered on to Ficoll Hypaque (Amersham Pharmacia Biotech, Piscataway, N.J., Catalog #17-1440-03) in 2:1 blood/PBS:ficoll ratio and centrifuged for 30 minutes at 4° C. at 1750 rpm. The cells at the serum: ficoll interface were recovered and washed twice with 5 volumes of PBS. These freshly isolated human peripheral blood mononuclear cells were cultured in Yssel's medium containing 40 U/ml IL2 in a flask pre-coated with 1 μg/ml αCD3 and 5 μg/ml αCD28 (Anti-Human CD3, BD Pharmingen Catalog #555336, Anti-Human CD28, Beckman Coulter Catalog # IM1376). The cells were stimulated for 3-4 days, then transferred to a fresh flask and maintained in RPMI (RPMI-1640 with L-Glutamine; Mediatech, Inc., Herndon Va., cat. #10-040-CM) with 10% FBS and 40 U/ml IL-2. The primary T-cells were then washed twice with PBS to remove the IL-2.
as §1, with “Primary T cell stimulation and IL2 ELISA: Human primary” for “Human primary”, “compound in Yssel's medium for 1” for “compound in RPMI-1640 with L-Glutamine and 10% FBS for 1”, “ionomycin in Yssels (for final” for “ionomycin in RPMI-1640 with L-Glutamine and 10% FBS (for final”, “and 0.1 uM ionomycin, both” for “and 0.1 μM ionomycin, both”

[1] = Homo sapiens, T-cell, 24 h, IL-2 production, human primary T cells stimulated with αCD3 and αCD28, 24 hours, IL-2 by ELISA, read-out: EC50
[2] = Homo sapiens, T-cell, human primary T cells stimulated with αCD3 and αCD28, IL-2 by ELISA, read-out: EC50 (blocked IL-2 production)
[3] = IL-2 production, human primary T cells stimulated with αCD3 and αCD28, 24 hours, IL-2 by ELISA, read-out: EC50

EC50 [1] [µM]	EC50 [2] [µM]	EC50 [3] [µM]	SMILES	EC50 (T-cell, human primary T cells stimulated with αCD3 and αCD28, IL-2 by ELISA, read-out: EC50 (blocked IL-2 production)) [µM]
< 0.5	< 10	–	Cn1nnn(-c2cc(Nc3ncc(F)c(N[C@@H]4C[C@@H]5C[C@H](F)CN5C(C)(C)C4)n3)c(F)cc2C2CC2)c1=O [Compound 67, 1-(5-(4-((2S,7R,8aR)-2-fluoro-octahydro-5,5-dimethylindolizin-7-ylamino)-5-fluoropyrimidin-2-ylamino)-2-cyclopropyl-4-fluorophenyl)-4-methyl-1H-tetrazol-5(4H)-one]	–
< 10	< 10	–	Cn1nnn(-c2cc(Nc3ncc(F)c(NC4CCN5C(CCC5(C)C)C4)n3)c(F)cc2C2CC2)c1=O (single isomer, unassigned) [Compound 34, 1-(5-(5-fluoro-4-(octahydro-3,3-dimethylindolizin-7-ylamino)pyrimidin-2-ylamino)-2-cyclopropyl-4-fluorophenyl)-4-methyl-1H-tetrazol-5(4H)-one]	–
< 0.1	< 10	–	Cn1nnn(-c2cc(Nc3ncc(F)c(N[C@@H]4C[C@@H]5CCCN5C(C)(C)C4)n3)c(F)cc2OCC(C)(C)O)c1=O [Compound 87, 1-(5-(4-((7R,8aS)-5,5-dimethyloctahydroindolizin-7-ylamino)-5-fluoropyrimidin-2-ylamino)-4-fluoro-2-(2-hydroxy-2-methylpropoxy)phenyl)-4-methyl-1H-tetrazol-5(4H)-one]	–
–	–	–	Cn1nnn(-c2cc(Nc3ncc(F)c(N[C@@H]4C[C@@H]5CCCN5C(C)(C)C4)n3)c(F)cc2OCCO)c1=O [Compound 77, 1-(2-(2-hydroxyethoxy)-5-(4-((7R,8aS)-octahydro-5,5-dimethylindolizin-7-ylamino)-5-fluoropyrimidin-2-ylamino)-4-fluorophenyl)-4-methyl-1H-tetrazol-5(4H)-one]	< 10
< 1	< 10	–	Cn1nnn(-c2cc(Nc3ncc(F)c(N[C@H]4C[C@H]5CCCN5C(C)(C)C4)n3)c(F)cc2C2CC2)c1=O [Compound 18, 1-(5-(4-((7S,8aR)-octahydro-5,5-dimethylindolizin-7ylamino)-5-fluoropyrimidin-2-ylamino)-2-cyclopropyl-4-fluorophenyl)-4-methyl-1H-tetrazol-5(4H)-one]	–
–	–	< 0.5	Cc1ncc(Nc2ncc(F)c(NC3CC4CCCN4C(C)(C)C3)n2)cc1-n1nnnc1C (stereo not drawn) [Compound 15]	–
–	–	< 0.5	CC(C)N1CCC(Oc2ccc(Nc3ncc(F)c(NC4CC5CCCN5C(C)(C)C4)n3)cc2OC(F)F)CC1 (stereo not drawn) [Compound 10, (R/S, S/R, R/R, S/S)—N^2-(4-(1-isopropylpiperidin-4-yloxy)-3-(difluoromethoxy)phenyl)-5-fluoro-N^4-(octahydro-5,5-dimethylindolizin-7-yl)pyrimidine-2,4-diamine]	–
–	–	< 0.5	CC1C(Nc2nc(Nc3cc(N(C)C(=O)N(C)C)c(C4CC4)cc3F)ncc2F)CC(C)(C)N2CCCC12 (stereo not drawn) [Compound 74]	–
< 1	< 10	–	CC1(C)C[C@H](Nc2nc(Nc3cc(-n4cnnn4)c(C4CC4)cc3F)ncc2F)C[C@@H]2CC(F)(F)CN21 [Compound 46, N^2-(4-cyclopropyl-2-fluoro-5-(1H-tetrazol-1-yl)phenyl)-5-fluoro-N^4-((7R,8aR)-2,2-difluoro-octahydro-5,5-dimethylindolizin-7-yl)pyrimidine-2,4-diamine]	–
< 0.1	< 10	–	Cn1nnn(-c2cc(Nc3ncc(C#N)c(N[C@@H]4C[C@@H]5CCCN5C(C)(C)C4)n3)c(F)cc2OCC(C)(C)O)c1=O [Compound 80, 4-((7R,8aS)-octahydro-5,5-dimethylindolizin-7-ylamino)-2-(4-(2-hydroxy-2-methylpropoxy)-2-fluoro-5-(4,5-dihydro-4-methyl-5-oxotetrazol-1-yl)phenylamino)pyrimidine-5-carbonitrile]	–
< 0.5	< 10	–	CC1(C)CC(Nc2nc(Nc3ccc(OC4CCOCC4)c(C#N)c3)ncc2F)CC2CCCN21 (single isomer, unassigned) [Compound 41, 5-(5-fluoro-4-(octahydro-5,5-dimethylindolizin-7-ylamino)pyrimidin-2-ylamino)-2-(tetrahydro-2H-pyran-4-yloxy)benzonitrile]	–
< 0.1	< 10	–	CC1(C)C[C@H](Nc2nc(Nc3cc(-n4cnnn4)c(C4CC4)cc3F)ncc2C#N)C[C@@H]2CCCN21 (racemic) [Compound 56, (±)-2-(4-cyclopropyl-2-fluoro-5-(1H-tetrazol-1-yl)phenylamino)-4-(octahydro-5,5-dimethylindolizin-7-ylamino)pyrimidine-5-carbonitrile]	–
< 0.1	< 10	–	C[C@@H](O)COc1cc(F)c(Nc2ncc(C#N)c(N[C@@H]3C[C@@H]4CCCN4C(C)(C)C3)n2)cc1-n1nnn(C)c1=O [Compound 90, 4-((7R,8aS)-octahydro-5,5-dimethylindolizin-7-ylamino)-2-(4-((R)-2-hydroxypropoxy)-2-fluoro-5-(4,5-dihydro-4-methyl-5-oxotetrazol-1-yl)phenylamino)pyrimindine-5-carbonitrile]	–
< 0.5	< 10	–	Cn1nnn(-c2cc(Nc3ncc(F)c(N[C@@H]4C[C@@H]5C[C@@H](O)CN5C(C)(C)C4)n3)c(F)cc2C2CC2)c1=O [Compound 68, 1-(5-(4-((2R,7R,8aR)-2-hydroxy-octahydro-5,5-dimethylindolizin-7-ylamino)-5-fluoropyrimidin-2-ylamino)-2-cyclopropyl-4-fluorophenyl)-4-methyl-1H-tetrazol-5(4H)-one]	–
< 10	< 10	–	Cn1nnn(-c2cc(Nc3ncc(F)c(N[C@H]4C[C@@H]5CCC(=O)N5C(C)(C)C4)n3)c(F)cc2C2CC2)c1=O (racemic) [Compound 32, 1-(5-(5-fluoro-4-(hexahydro-5,5-dimethylindolizin-3(5H)-one-7-ylamino)pyrimidin-2-ylamino)-2-cyclopropyl-4-fluorophenyl)-4-methyl-1H-tetrazol-5(4H)-one]	–
–	< 10	–	CC1(C)C[C@H](Nc2nc(Nc3cc(-n4cnnn4)c(C4CC4)cc3F)ncc2F)C[C@@H]2CCCN21 (racemic) [Compound 53, (±)-N2-(4-cyclopropyl-2-fluoro-5-(1H-tetrazol-1-yl)phenyl)-5-fluoro-n^4-(octahydro-5,5-dimethylindolizin-7-yl)pyrimidine-2,4-diamine]	–
< 10	< 10	–	Cn1nnn(-c2cc(Nc3ncc(F)c(N[C@@H]4C[C@@H]5CCCN5C(C)(C)C4)n3)c(F)cc2O)c1=O [Compound 89, 1-(5-(4-((7R,8aS)-octahydro-5,5-dimethylindolizin-7-ylamino)-5-fluoropyrimidin-2-ylamino)-4-fluoro-2-hydroxyphenyl)-4-methyl-1H-tetrazol-5(4H)-one]	–
< 0.5	< 10	–	Cn1nnn(-c2cc(Nc3ncc(F)c(NC4CC5CCCN5C(C)(C)C4)n3)ccc2OC2CCOCC2)c1=O (racemic) [Compound 51, 1-(5-(5-fluoro-4-(octahydro-5,5-dimethylindolizin-7-ylamino)pyrimidin-2-ylamino)-2-(tetrahydro-2H-pyran-4-oxy)phenyl)-4-methyl-1H-tetrazol-5(4H)-one]	–

SMILES	EC50 [1] [µM]	EC50 [2] [µM]	EC50 [3] [µM]	EC50 (T-cell, human primary T cells stimulated with αCD3 and αCD28, IL-2 by ELISA, read-out: EC50 (blocked IL-2 production)) [µM]
Cn1nnn(-c2cc(Nc3ncc(F)c(NC4CC5CCCN5C(C)(C)C4)n3)ccc2OC2COC2)c1=O (single isomer, unassigned) [Compound 39, 1-(5-(5-fluoro-4-(octahydro-5,5-dimethylindolizin-7-ylamino)pyrimidin-2-ylamino)-2-(oxetan-3-yloxy)phenyl)-4-methyl-1H-tetrazol-5(4H)-one]	–	< 10	< 0.5	–
